Results from patent publication US10000450B2, “N,N-substituted 3-aminopyrrolidine compounds useful as monoamines reuptake inhibitors” (OTSUKA PHARMACEUTICAL CO., LTD., priority 2005, dated 2018).
Counter-ions that a name gives are not always drawn.

Experiments:
[1] = target: T1, Serotonin (5-HT) uptake into rat brain synaptosome (frontal cortex) (Rattus norvegicus, UniProt P31652); experiment: Inhibitory activity on serotonin (5-HT) uptake into rat brain synaptosome; assay type: biochemical; conditions: tritium-labeled 5-HT 8 nM uptake, 10 min at 37° C., read-out: 50% inhibittory concentration
T1 construct: used as crude synaptosome fractions; from tissue; host or cells: rat (male Wistar) frontal cortex, crude synaptosome fraction
T1 sequence (P31652 whole entry): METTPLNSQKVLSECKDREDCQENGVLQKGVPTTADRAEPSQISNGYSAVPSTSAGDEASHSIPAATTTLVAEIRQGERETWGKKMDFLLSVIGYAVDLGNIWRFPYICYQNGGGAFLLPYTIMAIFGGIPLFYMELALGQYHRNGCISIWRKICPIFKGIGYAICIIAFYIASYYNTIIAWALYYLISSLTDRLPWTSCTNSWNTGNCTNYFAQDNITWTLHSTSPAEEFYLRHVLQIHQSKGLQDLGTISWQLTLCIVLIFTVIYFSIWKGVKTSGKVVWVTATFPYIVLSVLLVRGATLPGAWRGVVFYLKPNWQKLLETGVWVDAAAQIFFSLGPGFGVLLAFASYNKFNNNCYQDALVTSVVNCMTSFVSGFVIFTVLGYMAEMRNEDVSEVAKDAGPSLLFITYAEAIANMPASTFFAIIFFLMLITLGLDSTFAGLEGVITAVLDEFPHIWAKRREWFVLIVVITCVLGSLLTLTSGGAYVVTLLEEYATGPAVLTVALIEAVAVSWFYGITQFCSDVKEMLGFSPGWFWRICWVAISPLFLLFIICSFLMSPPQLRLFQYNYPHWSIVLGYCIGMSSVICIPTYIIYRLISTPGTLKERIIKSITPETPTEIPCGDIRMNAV
Procedure: Pharmacological Test 1 Evaluation of Inhibitory Activity of Test Compound on Serotonin (5-HT) Uptake into Rat Brain Synaptosome
(§1) Male Wistar rats were decapitated and the brains were removed and the frontal cortices were dissected. The separated frontal cortices were homogenized in 20 volumes as weight of 0.32 M sucrose solution by a Potter-type homogenizer. The homogenate was centrifuged at 1000 g at 4° C. for 10 minutes, and the supernatant was then centrifuged at 20000 g at 4° C. for 20 minutes. The pellet was resuspended in incubation buffer (20 mM HEPES buffer (pH 7.4)) containing 10 mM glucose, 145 mM sodium chloride, 4.5 mM potassium chloride, 1.2 mM magnesium chloride, and 1.5 mM calcium chloride) and used as crude synaptosome fractions.
(§2) The uptake reaction mixture was suspended in a final volume of 200 μl containing pargyline (final concentration of 10 μM) and sodium ascorbate (final concentration of 0.2 mg/ml) in each well of 96-well-round-bottom-plate.
(§3) Solvent, unlabeled 5-HT, and serial diluted test compounds were added in each well, and synaptosome fraction of 1/10 volume of the final volume were added. After a 10 min preincubation at 37° C., the uptake was initiated by the addition of tritium-labeled 5-HT solution (final concentration of 8 nM) at 37° C. The uptake was stopped after 10 minutes by filtration under vacuum through a 96-well glass fiber filter plate. After washing the filter with cold physiological saline and drying up, Microscint-O (Perkin-Elmer) was added, and remained radioactivity on the filter was measured.
(§4) The total uptake activity with only solvent was determined as 100%, and the nonspecific uptake activity with unlabeled 5-HT (final concentration of 10 μM) was determined as 0%. The 50% inhibitory concentrations were calculated based on the concentrations of the test compounds and their inhibitory activities.

[2] = target: T2, Dopamine (DA) uptake into rat brain synaptosome (striatum) (Rattus norvegicus, UniProt P23977); experiment: Inhibitory activity on dopamine (DA) uptake into rat brain synaptosome; assay type: biochemical; conditions: tritium labeled DA 2 nM uptake, 10 min at 37° C., read-out: 50% inhibitory concentration
T2 construct: used as crude synaptosome fraction; from tissue; host or cells: rat (male Wistar) striatum, crude synaptosome fraction
T2 sequence (P23977 whole entry): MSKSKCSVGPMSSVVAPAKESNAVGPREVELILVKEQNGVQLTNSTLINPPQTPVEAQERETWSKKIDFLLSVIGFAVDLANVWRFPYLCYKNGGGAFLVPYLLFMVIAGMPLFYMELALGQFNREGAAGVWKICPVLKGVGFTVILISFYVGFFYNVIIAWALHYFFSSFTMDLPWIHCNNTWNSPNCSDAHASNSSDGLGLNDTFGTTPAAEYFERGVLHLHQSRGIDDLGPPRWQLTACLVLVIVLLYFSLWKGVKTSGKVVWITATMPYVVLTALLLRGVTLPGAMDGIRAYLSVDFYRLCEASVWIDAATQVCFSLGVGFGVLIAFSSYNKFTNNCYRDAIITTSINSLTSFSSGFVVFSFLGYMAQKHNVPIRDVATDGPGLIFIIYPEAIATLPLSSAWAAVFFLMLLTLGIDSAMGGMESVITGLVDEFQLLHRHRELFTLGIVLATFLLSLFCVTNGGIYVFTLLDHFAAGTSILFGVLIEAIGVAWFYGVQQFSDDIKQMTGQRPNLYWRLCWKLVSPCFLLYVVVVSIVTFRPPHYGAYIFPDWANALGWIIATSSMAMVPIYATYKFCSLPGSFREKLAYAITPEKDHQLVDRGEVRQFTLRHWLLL
Procedure: Pharmacological Test 3 Evaluation of Inhibitory Activity of Test Compound on Dopamine (DA) into Rat Brain Synaptosome
as §1, with “striata” for “frontal cortices”, “fraction.” for “fractions.”
as §2
as §3, with “DA,” for “5-HT,”, “10-min” for “a 10 min”, “tritium labeled DA” for “tritium-labeled 5-HT”, “2” for “8”, “Microscint-0” for “Microscint-O”, “added” for “added,”
as §4, with “The” for “The total”, “DA” for “5-HT”

[3] = target: T3, Norepinephrine (NE) uptake into rat brain synaptosome (hippocampus) (Rattus norvegicus, UniProt Q63380); experiment: Inhibitory activity on norepinephrine (NE) uptake into rat brain synaptosome; assay type: biochemical; conditions: tritium-labeled NE 12 nM uptake, 10 min at 37° C., read-out: 50% inhibitory concentration
T3 construct: used as crude synaptosome fraction; from tissue; host or cells: rat (male Wistar) hippocampus, crude synaptosome fraction
T3 sequence (Q63380 1-617): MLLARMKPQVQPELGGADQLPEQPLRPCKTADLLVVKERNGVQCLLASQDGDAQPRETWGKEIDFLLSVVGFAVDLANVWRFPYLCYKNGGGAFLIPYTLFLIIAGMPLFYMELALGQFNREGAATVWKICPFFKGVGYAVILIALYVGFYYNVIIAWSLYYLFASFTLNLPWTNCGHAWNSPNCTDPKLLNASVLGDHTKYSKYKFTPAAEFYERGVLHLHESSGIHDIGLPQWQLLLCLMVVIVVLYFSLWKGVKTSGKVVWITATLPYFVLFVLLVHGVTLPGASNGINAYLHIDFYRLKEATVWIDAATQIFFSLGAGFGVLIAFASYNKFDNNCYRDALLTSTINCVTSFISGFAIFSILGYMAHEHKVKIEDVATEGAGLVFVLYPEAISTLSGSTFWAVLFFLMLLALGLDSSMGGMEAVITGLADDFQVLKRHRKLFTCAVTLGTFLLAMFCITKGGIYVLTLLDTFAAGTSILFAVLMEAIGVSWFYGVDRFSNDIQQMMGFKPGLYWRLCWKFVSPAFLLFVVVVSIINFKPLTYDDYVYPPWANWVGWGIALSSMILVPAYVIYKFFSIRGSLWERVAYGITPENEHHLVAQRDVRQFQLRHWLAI
Procedure: Pharmacological Test 2 Evaluation of Inhibitory Activity of Test Compound on Norepinephrine (NE) Uptake into Rat Brain Synaptosome
as §1, with “hippocampi” for “frontal cortices”, “fraction.” for “fractions.”
The uptake reaction mixture was suspended in final volume of 200 μl containing pargyline (final concentration of 10 μM) and sodium ascorbate (final concentration of 0.2 mg/ml) in each well of 96-well-round-bottom-plate.
Solvent, unlabeled NE, and serial diluted test compounds were added to each well, and synaptosome fraction of 1/10 volume of the final volume were added. After 10 minutes preincubation at 37° C., the uptake was initiated by the addition of tritium-labeled NE solution (final concentration of 12 nM) at 37° C. The uptake was stopped after 10 minutes by filtration under vacuum through a 96-well glass fiber filter plate. After washing the filter with cold physiological saline and drying up, Microscint-0 (Perkin-Elmer) was added, and remained radioactivity on the filter was measured.
as §4, with “NE” for “5-HT”

| SMILES | melting point [°C] | IC50 [1] [nM] | IC50 [2] [nM] | IC50 [3] [nM] |
| --- | --- | --- | --- | --- |
| Fc1cccc(N(c2ccc(C(F)(F)F)cc2)[C@H]2CCNC2)c1.O=C(O)/C=C/C(=O)O.O=C(O)/C=C/C(=O)O | 144 to 146.2 |  |  |  |
| CSc1ccc(N(c2ccccc2)[C@H]2CCNC2)cc1 (as salt: fumarate) [Example 19] | 152.9 to 155.5 |  |  |  |
| Fc1ccc(N(c2ccccc2)[C@H]2CCNC2)cc1 (as salt: fumarate) [Example 20] | 143 to 145 |  |  |  |
| Cc1ccc(N(c2ccccc2)[C@H]2CCNC2)cc1 (as salt: fumarate) [Example 22] | 141.7 to 143.8 |  |  |  |
| N#Cc1ccc(N(c2ccc(F)c(Cl)c2)[C@H]2CCNC2)cc1 (as salt: fumarate) [Example 73] | 174 to 175 |  |  |  |
| Fc1ccc(N(c2ccc3ccsc3c2)[C@H]2CCNC2)cc1 (as salt: fumarate) [Example 114] | 131.6 to 133.3 |  |  |  |
| Fc1ccc(N(c2nccs2)[C@H]2CCNC2)cc1Cl (as salt: fumarate) [Example 131] | 128 to 129.9 |  |  |  |
| c1ccc(N(c2ccc3sccc3c2)[C@H]2CCNC2)cc1 (as salt: hydrochloride) [Example 116] | 158 to 160 |  |  |  |
| CS(=O)(=O)O.CS(=O)(=O)O.Fc1ccc(N(c2cccnc2)[C@H]2CCNC2)cc1Cl [Example 7, (3-chloro-4-fluorophenyl) pyridin-3-yl-(S)-pyrrolidin-3-ylamine dimethanesulfonate] | 194 to 195 | 3 | 45 | 0.4 |
| Fc1ccc(N(c2ccc(-c3cnco3)cc2)[C@H]2CCNC2)cc1Cl [Example 90] | 115 to 117 | 1.2 | 4.8 | 0.7 |

Further lines, results first:

| melting point [°C] | IC50 [1] [nM] | IC50 [2] [nM] | IC50 [3] [nM] | SMILES |
| --- | --- | --- | --- | --- |
| 152.4 to 154.4 |  |  |  | Fc1ccc(N(c2ccccn2)[C@H]2CCNC2)cc1Cl (as salt: fumarate) [Example 154] |
| 136 to 137 |  |  |  | Fc1ccc(N(c2ccc(Cl)nc2)[C@H]2CCNC2)cc1Cl (as salt: fumarate) [Example 244] |
| 135 to 136 |  |  |  | Fc1ccc(N(c2ccsc2)[C@H]2CCNC2)cc1Cl (as salt: fumarate) [Example 278] |
| 135 to 138 |  |  |  | Clc1ccc(N(c2ccccn2)[C@H]2CCNC2)cc1Cl (as salt: hydrochloride) [Example 188] |
| 212 to 215 |  |  |  | Fc1ccc(N(c2ccc(N3CCNCC3)cn2)[C@H]2CCNC2)cc1Cl (as salt: hydrochloride) [Example 200] |
| 208 to 211 |  |  |  | CCN1CCN(c2ccc(N(c3ccc(F)c(Cl)c3)[C@H]3CCNC3)nc2)CC1 (as salt: hydrochloride) [Example 201] |
| 108 to 110 |  |  |  | Clc1ccc(N(c2cccnc2)[C@H]2CCNC2)cc1Cl (as salt: hydrochloride) [Example 242] |
| 150 to 156 |  |  |  | Fc1ccc(N(c2ccc3cnsc3c2)[C@H]2CCNC2)cc1Cl (as salt: hydrochloride) [Example 930] |
| 241.5 to 243.5 |  |  |  | c1ccc(N(c2ccc3sccc3n2)[C@H]2CCNC2)cc1 (as salt: hydrochloride) [Example 934] |
| 96 to 98 |  |  |  | Fc1ccc(N(c2ccc(Cl)c(Cl)c2)[C@H]2CCNC2)nc1 (as salt: hydrochloride) [Example 961] |
| 120 to 124 |  |  |  | Clc1ccc(N(c2cnccn2)[C@H]2CCNC2)cc1Cl (as salt: hydrochloride) [Example 963] |
| 229 to 231 |  |  |  | Clc1ccc(N(c2ccncc2)[C@H]2CCNC2)cc1Cl (as salt: salt) [Example 273] |
|  | 0.9 | 25.4 | 0.1 | CC(C)(O)CN(c1ccc(F)c(Cl)c1)[C@H]1CCNC1 [Example 967] |
|  | 0.6 | 5.8 | 0.3 | Fc1ccc(N(c2ccc3ncsc3c2)[C@H]2CCNC2)cc1Cl [Example 989] |
